Measured values as given in paper PMC8648872, “A host-directed macrocyclic peptide therapeutic for MDR gram negative bacterial infections” (Scientific Reports, 2021).
Where a SMILES comes first, the peptide text is derived from it. Bridges are numbered along the chain shown (N, C = ends).

Legend:
Kp-1705 [1] = test: Challenge with MTD12813-preincubated Kp-1705, survival; assay type: in vivo, BALB/c mice
Procedure: (§1) Cryopreserved Kp-1705 was suspended in PBS to a density of ca. 1 × 10^9 CFU/ml, and incubated with saline or 1.25 µg/ml MTD12813 at room temperature for 1 h. Mice (n = 26) were then infected i.p. with 500 µl of saline- or MTD12813- pretreated Kp-1705, and a third cohort (n = 12) received 500 µl i.p. of 1.25 µg/ml MTD12813 immediately following infection with saline treated Kp-1705. Five mice from each cohort were euthanized 4 h p.i., and peritoneal lavage was collected for bacterial burden determination and cytospin preparation. In vitro antibacterial activity of MTD12813 (1.25 μg/ml) -treated cells (1 h; 37 °C) was determined by plating saline or peptide treated cells on TSA plates. Growth kinetics of saline and MTD12813-treated cells was determined by diluting samples from the 1 h incubation mixtures 1:40 into TSB and monitoring growth (620 nm) for 5.5 h at 37 °C. Antibacterial activity of MTD12813 in PF was determined by i.p. injection of naïve male BALB/c mice (n = 5 per group) with 1.25 mg/kg of MTD12813 or saline i.p. (10 ml/kg). […] Peritoneal fluid was clarified by centrifugation at 1200×g and an aliquot used to quantify MTD12813 by LC–MS/MS, as described above. Antimicrobial activity was determined by incubating PF (9:1 vol/vol) with Kp-1705 at a final density of 3 × 10^7 CFU/ml. […]

[2] = Peptide stability in human serum; assay type: in vitro ADME; details: 90% (vol/vol) human serum, 37 °C, C18 RP-UPLC with PDA detector, read-out: peptide remaining intact
Procedure: MTD12813 (final concentration of 100 µg/ml) was added to either 90% human EDTA plasma or 90% human serum and incubated at 37 °C for 48 h. Samples were processed by addition of 10% HOAc and 5% ACN (final concentrations) at time 0 and 48 h, and MTD12813 was quantified by C18 RP-HLPC on an Acquity H-Class UPLC with an analytical PDA detector using Empower 3 software (Waters). All samples were performed with technical replicates and analyzed by UPLC in duplicate and the experiment repeated once. […] A time 0 h sample was collected, and the remaining suspension incubated at 37 °C for 24 h. Samples were processed by addition of 5% formic acid/5% acetonitrile, vortexed, and clarified at 22,000×g for 10 min. Supernatant MTD12813 was then quantified by LC–MS/MS as described in PK section above. All samples were performed with technical replicates and analyzed by LC–MS/MS in duplicate.

Kp-1705 [3] = test: Viability and replication fitness of Kp-1705 at sub-MIC peptide; assay type: cell-based, K. pneumoniae; details: Kp-1705 (1 x 10^9 CFU/ml), 1 h with 1.25 µg/ml MTD12813; CFU on TSA, growth at A620
Procedure: as §1
replication fitness of Kp-1705. […] (a) Bacterial viability was quantified as CFU on TSA plates. […]

human whole blood = test: Cytokine release by human whole blood incubated with live Kp-1705; assay type: cell-based; details: human whole blood 1:10 in RPMI-1640, 1000 CFU/ml Kp-1705, 4 h, 37 °C, ELISA
Procedure: Log-phase […] grown in TSB were pelleted, washed twice in PBS, and suspended to 1 × 10^5 CFU/ml in RPMI-1640. EDTA-anticoagulated blood collected from a healthy adult human donor was incubated at a final dilution of 1:10 in RPMI-1640 with 1000 CFU/ml of Kp-1705 and varied concentrations of MTD12813 for 4 h 37 °C in 5% CO2 with gentle rocking. Incubation supernatants were frozen at − 80 °C. TNF and IL-6 were quantified by ELISA (Invitrogen KHC3011, KHC0061).

CC[C@H](C)[C@@H]1NC(=O)[C@@H]2CSSC[C@H](NC(=O)[C@H]([C@@H](C)CC)NC(=O)[C@@H]3CSSC[C@H](NC1=O)C(=O)N[C@@H](C(C)C)C(=O)NCC(=O)N[C@@H](CCCNC(=N)N)C(=O)NCC(=O)N3)C(=O)N[C@@H](C(C)C)C(=O)N[C@@H](CCCNC(=N)N)C(=O)N[C@@H](CCCNC(=N)N)C(=O)N[C@@H](CCCNC(=N)N)C(=O)N2 [MTD12813] (cyclo(CICVGRGCICVRRR); disulfide 1-10, 3-8)
survival, equal quantity of peptide given immediately following infection (Kp-1705 [1]; 0.5 ml of 1.25 µg/ml i.p. after saline-preincubated Kp-1705, n = 12): no statistically significant protection
survival after challenge with preincubated bacteria (Kp-1705 [1]; Kp-1705 preincubated 1 h with 1.25 µg/ml MTD12813, 500 µl i.p., n = 26): protected
remaining at 48 h, 100 µg/ml [2]: > 95%
bacterial viability and replication fitness (Kp-1705 [3]): no effect on bacterial viability or replication fitness
release of TNF and IL-6 (human whole blood): concentration-dependently suppressed
